Test results reported in ChEMBL document CHEMBL3112450, “Synthesis and in vitro antitumor evaluation of primary amine substituted quinazoline linked benzimidazole” (Bioorg Med Chem Lett, 2014).

Experiments:
Type in all cases: functional
SF-268 = experiment: Cytotoxicity against human SF268 cells assessed as growth inhibition at 10 uM after 48 hrs by SRB assay; settings: SF-268, 48 h, read-out: GI
[1] = Cytotoxicity against human Hs578T cells assessed as growth inhibition at 10 uM after 48 hrs by SRB assay; settings: Hs-578T, read-out: GI
U-251 = experiment: Cytotoxicity against human U251 cells assessed as growth inhibition at 10 uM after 48 hrs by SRB assay; settings: U-251, 48 h, read-out: GI
NCI-H522 = experiment: Cytotoxicity against human NCI-H522 cells assessed as growth inhibition at 10 uM after 48 hrs by SRB assay; settings: NCI-H522, 48 h, read-out: GI
MDA-MB-435 = experiment: Cytotoxicity against human MDA-MB-435 cells assessed as growth inhibition at 10 uM after 48 hrs by SRB assay; settings: MDA-MB-435, 48 h, read-out: GI
A549 = experiment: Cytotoxicity against human A549 cells assessed as growth inhibition at 10 uM after 48 hrs by SRB assay; settings: A549, 48 h, read-out: GI
ACHN = experiment: Cytotoxicity against human ACHN cells assessed as growth inhibition at 10 uM after 48 hrs by SRB assay; settings: read-out: GI
SK-MEL-28 = experiment: Cytotoxicity against human SK-MEL-28 cells assessed as growth inhibition at 10 uM after 48 hrs by SRB assay; settings: SK-MEL-28, 48 h, read-out: GI
M14 = experiment: Cytotoxicity against human M14 cells assessed as growth inhibition at 10 uM after 48 hrs by SRB assay; settings: M14, 48 h, read-out: GI
LOX IMVI = experiment: Cytotoxicity against human LOXIMVI cells assessed as growth inhibition at 10 uM after 48 hrs by SRB assay; settings: read-out: GI
OVCAR-3 = experiment: Cytotoxicity against human OVCAR3 cells assessed as growth inhibition at 10 uM after 48 hrs by SRB assay; settings: OVCAR-3, 48 h, read-out: GI
CAKI-1 = experiment: Cytotoxicity against human Caki1 cells assessed as growth inhibition at 10 uM after 48 hrs by SRB assay; settings: CAKI-1, 48 h, read-out: GI
HL-60(TB) = experiment: Cytotoxicity against human HL-60(TB) cells assessed as growth inhibition at 10 uM after 48 hrs by SRB assay; settings: HL-60, 48 h, read-out: GI
SK-MEL-2 = experiment: Cytotoxicity against human SK-MEL-2 cells assessed as growth inhibition at 10 uM after 48 hrs by SRB assay; settings: SK-MEL-2, 48 h, read-out: GI
UACC-62 = experiment: Cytotoxicity against human UACC62 cells assessed as growth inhibition at 10 uM after 48 hrs by SRB assay; settings: UACC-62, 48 h, read-out: GI
RXF 393 = experiment: Cytotoxicity against human RXF393 cells assessed as growth inhibition at 10 uM after 48 hrs by SRB assay; settings: RXF 393, 48 h, read-out: GI
[2] = Cytotoxicity against human EKVX cells assessed as growth inhibition at 10 uM after 48 hrs by SRB assay; settings: read-out: GI
SNB-19 = experiment: Cytotoxicity against human SNB19 cells assessed as growth inhibition at 10 uM after 48 hrs by SRB assay; settings: SNB-19, 48 h, read-out: GI
MOLT-4 = experiment: Cytotoxicity against human MOLT4 cells assessed as growth inhibition at 10 uM after 48 hrs by SRB assay; settings: MOLT-4, 48 h, read-out: GI

C=CCn1c(C)nc2ccc(Nc3nc(Nc4ccc(F)cc4)nc4ccccc34)cc21
inhibition of growth at 10 µM (SF-268): 30% | inhibition of growth at 10 µM [1]: 40% | inhibition of growth at 10 µM (U-251): 40% | inhibition of growth at 10 µM (NCI-H522): 40% | inhibition of growth at 10 µM (MDA-MB-435): 40% | inhibition of growth at 10 µM (A549): 40% | inhibition of growth at 10 µM (ACHN): 30% | inhibition of growth at 10 µM (SK-MEL-28): 30% | inhibition of growth at 10 µM (M14): 50% | inhibition of growth at 10 µM (LOX IMVI): 50% | inhibition of growth at 10 µM (OVCAR-3): 40% | inhibition of growth at 10 µM (CAKI-1): 40% | inhibition of growth at 10 µM (HL-60(TB)): 40% | inhibition of growth at 10 µM (SK-MEL-2): 40% | inhibition of growth at 10 µM (UACC-62): 30% | inhibition of growth at 10 µM (RXF 393): 30%

C=CCn1c(C)nc2ccc(Nc3nc(Nc4ccc5nc(C)n(CC=C)c5c4)c4ccccc4n3)cc21
inhibition of growth at 10 µM [2]: 90% | inhibition of growth at 10 µM (SNB-19): 50%

C=CCn1c(C)nc2cc(Nc3nc(NCCO)nc4ccccc34)ccc21
inhibition of growth at 10 µM (MOLT-4): 40%
